From PubChem BioAssay (NCI)
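Cultured in 96-well plates, cells were exposed to test compound for 48 hours across five concentrations. Here, GI50 denotes the concentration required for 50% inhibition of growth. TGI: concentration producing complete growth inhibition.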

Experiments:
Assay in all cases: inhibition of tumour cell growth, NCI panel, 48 h
[1] = test system: MDA-MB-231 breast
[2] = test system: SK-MEL-2 melanoma
[3] = test system: K-562 leukemia
[4] = test system: MOLT-4 leukemia
[5] = test system: OVCAR-8 ovarian
[6] = test system: HCT-15 colon
[7] = test system: MDA-MB-435
[8] = test system: RPMI-8226 leukemia
[9] = test system: CCRF-CEM leukemia
[10] = test system: CAKI-1 renal

Compound	TGI [1]	TGI [2]	TGI [3]	TGI [4]	TGI [5]	TGI [6]	TGI [7]	TGI [8]	TGI [9]	TGI [10]	GI50 [1]	GI50 [2]	GI50 [3]	GI50 [4]	GI50 [5]	GI50 [6]	GI50 [7]	GI50 [8]	GI50 [9]	GI50 [10]
O=C1c2ccccc2-c2ccc(N(Cc3ccc(Br)cc3)Cc3ccc(Br)cc3)cc21	> 100 µM	> 100 µM	> 100 µM	> 100 µM	> 100 µM	> 100 µM	> 100 µM	> 100 µM	46.2 µM	> 100 µM	–	–	–	–	–	–	–	–	–	–
COc1ccc(C2C(Cl)C(=O)N2NC(=O)c2ccc(NC(C)=O)cc2)cc1OC (centres undefined)	–	> 100 µM	> 100 µM	> 100 µM	> 100 µM	–	–	> 100 µM	> 100 µM	–	–	–	–	–	–	–	–	–	–	–
CSc1nc(NC2OC(CO)C(O)C(O)C2O)c(N)c(=O)n1C (centres undefined)	–	> 100 µM	> 100 µM	> 100 µM	> 100 µM	> 100 µM	–	> 100 µM	> 100 µM	–	–	–	–	–	–	–	–	–	–	–
O=C(Nc1ccc(-n2cc(-c3ccncc3)c(-c3ccc(O)c(Cl)c3)n2)cc1)c1ccc(Cl)c(Cl)c1	1.11 µM	7.41 µM	> 32.5 µM	> 32.5 µM	> 32.5 µM	> 32.5 µM	> 32.5 µM	1.44 µM	> 32.5 µM	> 32.5 µM	510 nM	932 nM	966 nM	1370 nM	1740 nM	708 nM	2060 nM	537 nM	1010 nM	2210 nM
CCCCCCCCCCCCCCCc1ccc(C(=O)C[n+]2ccccc2)cc1	2.23 µM	–	–	–	2.55 µM	2.56 µM	–	–	–	3.45 µM	886 nM	–	–	–	1220 nM	1030 nM	–	–	–	1010 nM
CCN(CC)CCSc1nc2c([N+](=O)[O-])cccc2[nH]1	–	–	> 100 µM	> 100 µM	> 100 µM	> 100 µM	–	> 100 µM	> 100 µM	> 100 µM	–	–	–	–	–	–	–	–	–	–
N=C(N)c1ccc(-c2ccc(-c3ccccc3)o2)cc1	4.08 µM	3.98 µM	4.99 µM	–	–	3.24 µM	3.03 µM	7.29 µM	5.03 µM	9.85 µM	1930 nM	2140 nM	2220 nM	–	–	1640 nM	1660 nM	2750 nM	2130 nM	2780 nM
Nc1cccc2cc(S(=O)(=O)Nc3ccc(C(=O)O)cc3)ccc12	> 100 µM	> 100 µM	> 100 µM	–	> 100 µM	> 100 µM	> 100 µM	> 100 µM	> 100 µM	> 100 µM	–	–	–	–	–	–	–	–	–	–
O=C(c1no[n+]([O-])c1C(=O)c1csc2ccccc12)c1csc2ccccc12	18.4 µM	20.7 µM	3.73 µM	3.17 µM	11.4 µM	21.7 µM	21.5 µM	1.95 µM	0.267 µM	2.23 µM	–	–	–	–	–	–	–	–	–	–
CNC1=C(C)C(=O)C2=C(C1=O)C(COC(N)=O)C1(OC)C3NC3CN21 (centres undefined)	–	4.27 µM	> 100 µM	> 100 µM	11 µM	3.52 µM	5.67 µM	66.7 µM	> 100 µM	2.78 µM	–	–	–	–	–	–	–	–	–	–
Cc1ccc(CCCC(=O)O)cc1C	> 100 µM	> 100 µM	> 100 µM	> 100 µM	> 100 µM	> 100 µM	> 100 µM	> 100 µM	> 100 µM	> 100 µM	–	–	–	–	–	–	–	–	–	–
CC(C)=CCC/C(C)=C/CC/C(C)=C/C(O)c1ccccc1 (centres undefined)	–	34.9 µM	> 100 µM	–	40.6 µM	32.8 µM	–	49.5 µM	52.4 µM	> 10 µM	–	–	–	–	–	–	–	–	–	–
